Marks after values point to notes of the source that are not given here.
Assays:
[1] = Stability of LUME and 97-63 in rat plasma (auto-sampler, bench top, freeze/thaw, freezer); assay type: in vitro ADME; details: n = 6
Experimental: All stability studies were conducted at two concentration levels, i.e., QC low and QC high, using six replicates at each concentration levels. […] The peak areas of analyte and IS obtained at initial cycle were used as the reference to determine the stability at subsequent points. The stability of LUME and 97–63 in the biomatrix during 6 hrs of exposure at room temperature in rat plasma (bench top (BT)) was determined at ambient temperature (25 ± 2°C). Freeze/thaw (FT) stability was evaluated up to three cycles. In each cycle, samples were frozen for at least 12 hrs at −70 ± 10°C. Freezer stability of both analytes in rat plasma was assessed by analysing the QC samples stored at −70 ± 10°C for at least 15 days. Samples were considered to be stable if assay values were within the acceptable limits of accuracy (i.e., ±15% deviation) and precision (i.e., ±15% RSD).

[2] = Oral pharmacokinetic interaction study of LUME and 97-78 in rats (LC-ESI-MS/MS, non-compartmental analysis); assay type: in vivo, male Sprague–Dawley rats; details: for RB% (relative bioavailability = AUC coadmin/AUC control × 100): LUME 10 mg/kg oral with 97-78 70 mg/kg oral vs LUME alone; for AUC(0-inf) / AUC(0-t) / CL/F / Cmax / Tmax / Vd/F / half-life: male, Sprague-Dawley, rat, plasma, po, 10 mg/kg, rats n = 5, mean ± SD
Experimental: Study was performed in male Sprague–Dawley rats (n = 5, weight range 200–220 g). The rats were fasted overnight (14–16 hrs) prior to the experiment but given free access to water. Rats were divided into three groups (n = 5 each): two control groups (LUME, 10 mg/kg, oral, suspension in 0.25% sodium CMC and 97–78, 70 mg/kg, oral, suspension in 0.25% sodium CMC), and one co-administration group (70 mg/kg of oral 97–78 and 10 mg/kg of oral LUME). Blood samples (approximately 0.25 mL) were collected from the retro-orbital plexus into heparinized microfuge tubes at 0.25, 0.50, 1, 3, 6, 9, 11, 13, 15, 24, 48, 72, and 120 hrs post-dosing and plasma was harvested by centrifuging the blood at 15,000xg for 10 min and stored frozen at −70 ± 10°C until bio-analysis.
Plasma data were subjected to non-compartmental pharmacokinetics analysis using WinNonlin (version 5.1, Pharsight Corp, Mountain View, CA, USA). The observed maximum plasma concentration (Cmax) and the time to reach the maximum plasma concentration (Tmax) were obtained by visual inspection of the experimental data. Area under the plasma concentration-time curve from time zero to the last quantifiable concentration (AUC0-t) was calculated using linear trapezoidal rule. The total area under the plasma concentration–time curve from time zero to time infinity (AUC0-∞) was calculated as the sum of AUC0-t and Clast/kel, where, Clast represents the last quantifiable concentration and Kel represents the terminal phase rate constant. The apparent elimination half-life (t1/2) was calculated as 0.693/kel and the kel was estimated by linear regression of the plasma concentrations in the log-linear terminal phase. The clearance (Cl/F); where F represents the oral bioavailability, was calculated as dose/AUC, and the volume of distribution (Vd/F) was calculated as (Cl/F)/kel. The data is presented as a mean ± SD. The pharmacokinetic parameters were compared using Student’s t test. A P-value of <0.05 was considered significant. The relative bioavailability (RB %) was calculated as follows: RelativebioavailabilityRB%=AUCcoadimin/AUCcontrol×100

[3] = set-up: method as in PMID 21428247; details: cited from earlier work
[4] = set-up: method as in PMID 21428247; details: cited from earlier work; remark: listed apart in the source
[5] = 10 ng/mL, 6 hrs (BT) bench top 25 ± 2°C
[6] = 10 ng/mL, 24 hrs (AS) auto-sampler at 4°C, processed samples
[7] = 10 ng/mL, FT-3 (three freeze/thaw cycles, −70 ± 10°C)
[8] = 400 ng/mL, 6 hrs (BT) bench top 25 ± 2°C
[9] = 400 ng/mL, 24 hrs (AS) auto-sampler at 4°C, processed samples
[10] = 400 ng/mL, FT-3 (three freeze/thaw cycles, −70 ± 10°C)
[11] = LUME 10 mg/kg with 97-78 70 mg/kg oral, rats
[12] = LUME 10 mg/kg oral co-administered with 97-78 70 mg/kg oral
[13] = control: LUME 10 mg/kg oral alone

C=C(c1ccc(OC(C)(C)CO)cc1)C1OCC2(OO1)C1CC3CC(C1)CC2C3 (centres unmarked) [97-63]
Stability in rat plasma: Accuracy (%) [1, 5]: 93.85% | Stability in rat plasma: Accuracy (%) [1, 6]: 104.67% | Stability in rat plasma: Accuracy (%) ([1]; 10 ng/mL, 15 days at −70°C): 100.47% | Stability in rat plasma: Accuracy (%) [1, 7]: 98.16% | Stability in rat plasma: Accuracy (%) [1, 8]: 95.85% | Stability in rat plasma: Accuracy (%) [1, 9]: 100.45% | Stability in rat plasma: Accuracy (%) ([1]; 400 ng/mL, 15 days at −70°C): 98.72% | Stability in rat plasma: Accuracy (%) [1, 10]: 99.79%

C=C(c1ccc(OC(C)(C)COC(=O)CCC(=O)O)cc1)C1OCC2(OO1)C1CC3CC(C1)CC2C3 (centres unmarked) [97-78]
effect of LUME co-administration on PK parameters of 97-78 other than Tmax ([2]; 97-78 70 mg/kg with LUME 10 mg/kg oral, rats): no significant effect | conversion into active metabolite 97-63 in vivo [3]: rapidly and completely converted | conversion to 97-63 in plasma [4]: rapidly converted

CCCCN(CCCC)CC(O)c1cc(Cl)cc2c1-c1ccc(Cl)cc1C2=Cc1ccc(Cl)cc1 (centres unmarked) [LUME, 2-dibutylamino-1-[2,7-dichloro-9-(4-chlorobenzylidene)-9H-fluoren-4-yl]-ethanol]
RB% (relative bioavailability = AUC coadmin/AUC control × 100) ([2]; rats): 64.41^* % | RB% (relative bioavailability = AUC coadmin/AUC control × 100) ([2]; rats, listed as lumefantrine): 64.41% | decrease of AUC0-∞ of orally administered LUME in presence of 97-78 ([2]; LUME 10 mg/kg with 97-78 70 mg/kg oral vs LUME alone, rats, p <0.05): 63.26% | effect of 97-78 co-administration on Cmax of LUME [2, 11]: not significantly altered | effect of 97-78 co-administration on Tmax of LUME [2, 11]: not significantly altered | AUC(0-inf) [2, 12]: 11000 ± 660 ng·h/mL | AUC(0-t) [2, 12]: 10600 ± 710 ng·h/mL | CL/F [2, 12]: 15.2 mL/min/kg | Cmax [2, 12]: 1920 ± 620 ng/mL | Tmax [2, 12]: 4 ± 2.45 h | Vd/F [2, 12]: 62.7 ± 8.4 L/kg | half-life [2, 12]: 47.8 ± 6.48 h | AUC(0-inf) [2, 13]: 17400 ± 3290 ng·h/mL | AUC(0-t) [2, 13]: 16500 ± 2960 ng·h/mL | CL/F [2, 13]: 9.83 mL/min/kg | Cmax [2, 13]: 1810 ± 750 ng/mL | Tmax [2, 13]: 3.75 ± 1.5 h | Vd/F [2, 13]: 39.5 ± 6.26 L/kg | half-life [2, 13]: 46.9 ± 6.52 h | Stability in rat plasma: Accuracy (%) [1, 5]: 101.73% | Stability in rat plasma: Accuracy (%) [1, 6]: 103.72% | Stability in rat plasma: Accuracy (%) ([1]; 10 ng/mL, 15 days at −70°C): 105.73% | Stability in rat plasma: Accuracy (%) [1, 7]: 99.48% | Stability in rat plasma: Accuracy (%) [1, 8]: 101.03% | Stability in rat plasma: Accuracy (%) [1, 9]: 101.51% | Stability in rat plasma: Accuracy (%) ([1]; 400 ng/mL, 15 days at −70°C): 102.54% | Stability in rat plasma: Accuracy (%) [1, 10]: 106.78%

— paper PMC4429480, “Simultaneous quantification of proposed anti-malarial combination comprising of lumefantrine and CDRI 97–78 in rat plasma using the HPLC–ESI-MS/MS method: application to drug interaction study” (Malaria Journal, 2015)
